Values of other authors, collected in publication PMC10326281, “Insights into the mechanisms governing P01 scorpion toxin effect against U87 glioblastoma cells oncogenesis” (Frontiers in Pharmacology, 2023).
pIC50: −log10 of the molar value. Where two headings read alike, the source gives them in different places. Bridges are numbered along the chain shown (N, C = ends). Where no end group is shown, it is not given here.

How the values were obtained:
SK2 channel = details: HEK293 cells; ref Hosseini et al., 2001; cited from earlier work
Source text: (§1) Besides, it seems that the effect of P01 on U87 cell proliferation is not due only to its blocking activity of SK2 channels, but also by targeting a complex of membrane receptors and/or effectors expressed in U87 cells, including SK2. […] These authors noted that the concentrations necessary for blocking proliferation were higher than those necessary for blocking these ion ...

U87 cells [1] = details: ref Abdullaev et al., 2010; cited from earlier work
Source text: as §1

hSK1 channel [2] = details: 2000, cited from earlier work
Source text: (§2) Our team has initiated the fractionation of Aa scorpion venom, in order to identify scorpion peptides targeting potassium channels involved in the oncological process. Thus, we succeeded to isolate one peptide well represented in this venom. Based on its N-terminal sequence and its mass fingerprint this peptide corresponded to the P01 toxin, previously described by ([Zerrouk et al., 1996]).

rSK2 channel = details: cited from earlier work
Source text: as §2

hSK1 channel [3] = details: ref Shah and Haylett, 2000, cited from earlier work
Source text: This can be explained by the differential expression of either functional SK2 isoforms or other membrane receptors between HEK293 and Jurkat cells.

Kv1.3 potassium channel = details: ref Wang, 2004; cited from earlier work
Source text: (§3) Recently, the anticancer activities of some natural peptides/toxins attracted considerable attention in drug discovery and have been the object of several studies showing that they affect tumor growth, induce apoptosis and inhibit cancer metastasis and angiogenesis in vitro and in vivo ([Ding et al., 2014]; [Majc et al., 2022]). Several examples of the activity of these peptides/toxins as well as their effect on K^+ channels have been recently summarized in many reviews.

BKCa channel = details: ref Wang, 2004; cited from earlier work
Source text: as §3, with “reviews. Thes ...” for “reviews.”

IKCa/SK4 channel = details: ref Wang, 2004; cited from earlier work
Source text: as §3, with “reviews. Thes ...” for “reviews.”

[4] = system: endometrial cancer cell lines; details: ref Wang, 2004; cited from earlier work
Source text: as §3, with “reviews. Thes ...” for “reviews.”

[5] = system: pancreatic cancer cell lines; details: ref Wang, 2004; cited from earlier work
Source text: as §3, with “reviews. Thes ...” for “reviews.”

U87 cells [6] = details: ref Pyrko et al., 2005, cited from earlier work
Source text: (§4) Thus, P01 and KAaH1 inhibited the U87 cell migration with different mechanisms. […] For instance, PIVL, a Kunitz-type serine protease inhibitor, from the venom of the Tunisian snake Macrovipera lebetina transmediterranea, re ...

integrins = details: tumor cell and angiogenic endothelial cell surface; ref Schmitmeier et al., 2005; cited from earlier work
Source text: as §4

c1ccc2c(c1)c1cc[n+]2CCCCC[n+]2ccc(c3ccccc32)NCCCCCN1 [UCL1848]
pIC50 (SK2 channel): 9.92
effect on U87 cell proliferation (U87 cells [1]): no effect

apamin (CNCKAPETALCARRCQQH-NH2; disulfide 1-11, 3-15; ends not checked; UniProt P01500 28-45, looked up)
pIC50 (hSK1 channel [2]; HEK293 cells, ref Shah and Haylett): 8.10
pIC50 (hSK1 channel [2]; HEK 293 cells, ref Strobaek et al.): 8.48
pIC50 (rSK2 channel; HEK 293 cells, ref Strobaek et al., 2000): 10.08
pIC50 (hSK1 channel [3]; COS-7 cells): 7.92
pIC50 (hSK1 channel [3]; Xenopus oocytes): 10.00

charybdotoxin
block of Kv1.3 (Kv1.3 potassium channel): known blocker
block of BKCa (BKCa channel): known blocker
block of IKCa/SK4 (IKCa/SK4 channel): known blocker
proliferation and cell cycle progression [4]: inhibited proliferation and cell cycle progression
proliferation and cell cycle progression [5]: inhibited proliferation and cell cycle progression

contortrostatin
survival (U87 cells [6]; rodent glioma model): prolongation of survival
tumor progression (U87 cells [6]; tumor induced by stereotactic injection of U87 cells): inhibited the tumor (induced by the stereotactically injection of U87 cells) progression
integrin binding (integrins): specifically binds to certain integrins

leiurotoxin I: first toxin isolated from Leiurus quintestriatus scorpin (AFCNLRMCQLSCRSLGLLGKCIGDKCECVKH-NH2; disulfide 12-28, 3-21, 8-26; ends not checked; UniProt P16341 1-31, looked up)
pIC50 (rSK2 channel; HEK293 cells, ref Hosseini et al., 2001): 9.55
